The source of these data is patent US20260315464A1, “COMPOSITIONS, METHODS, AND SYSTEMS FOR MODULATING SPLICING OF MSH3” (REVIR THERAPEUTICS, INC., priority 2023, published 2026).

In the experiment the test system is MSH3. As to the kind of experiment: QPCR assay for levels of MSH3 upon compound treatment in HEK293T or AD293 cells (fold-change of MSH3 transcript, EC50 of MSH3 downregulation; total MSH3 exons 13/14, exons 20/21; Table 8). In kind it is cell-based. The note with it: for mrna remaining at 1 µM / mrna remaining at 10 µM: Homo sapiens, fold-change of the MSH3 transcript, normalized to GAPDH; for mrna remaining at 1 µM: 1 μM compound; for mrna remaining at 10 µM: 10 μM compound; for EC50: EC50 of MSH3 downregulation, XtalPi. Here is the method: HEK293T or AD293 cells were treated with Compound 274 at 1 μM and […]. RNA, cDNA and qPCR was prepared using TaqMan Cells-to-CT Express kit (ThermoFisher Scientific). Taqman assays (ThermoFisher Scientific) were used for quantification of total MSH3 exons 13/14 (cat #4351372, ID #: Hs00988993_ml), total MSH3 exons 20/21 (cat #4351372, ID #: Hs00989000_ml), exon 13/PE14A (Fwd: 5′-[…]; Rev: 5′-[…]; Probe: 5′-[…]) and exon 20/PE21A (Fwd: 5′-[…]; Rev: 5′-[…]; Probe: 5′-[…]) mRNA expression. Taqman GAPDH (cat #4448489, ID #: Hs02758991_g1) was used as a reference for data normalization.

Take `Cc1nn(C)nc1-c1cc(F)c2c(c1)C(=O)N(c1ccc(N3CC4CC(C3)N4)nn1)C2` [Compound 662, 2-(6-(3,6-diazabicyclo[3.1.1]heptan-3-yl)pyridazin-3-yl)-6-(2,5-dimethyl-2H-1,2,3-triazol-4-yl)-4-fluoroisoindolin-1-one]: the mrna remaining at 1 µM stood at 191% and the mrna remaining at 10 µM turned out to be 87%.

A word on the EC50: it is the concentration giving half of the maximal effect. The low end stands for an effect from little substance, the high end for a need for much substance. Turning to `Cc1nn(C)cc1-c1cc(F)c2c(c1)C(=O)N(c1ccc(N(C)[C@H]3C[C@]4(C)CC[C@](C)(C3)N4)nn1)C2` [Compound 274, 6-(1,3-dimethyl-1H-pyrazol-4-yl)-2-(6-(((1R,3s,5S)-1,5-dimethyl-8-azabicyclo[3.2.1]octan-3-yl)(methyl)amino)pyridazin-3-yl)-4-fluoroisoindolin-1-one], it took 454 nM to reach a half-maximal effect (EC50) and the mrna remaining at 1 µM stood at 17%.

Regarding `CN(c1ncc(N2Cc3ccc(-c4cnn(C)n4)cc3C2=O)nn1)C1CC(C)(C)NC(C)(C)C1` [Compound 420, 2-(3-(methyl(2,2,6,6-tetramethylpiperidin-4-yl)amino)-1,2,4-triazin-6-yl)-6-(2-methyl-2H-1,2,3-triazol-4-yl)isoindolin-1-one], the mrna remaining at 1 µM is 74% and the mrna remaining at 10 µM worked out at 73%.

As for `COc1cc(-c2nn(C)nc2C)cc2c1CN(c1ccc(OC3CC(C)(C)NC(C)(C)C3)nn1)C2=O` [Compound 688, 6-(2,5-dimethyl-2H-1,2,3-triazol-4-yl)-4-methoxy-2-(6-((2,2,6,6-tetramethylpiperidin-4-yl)oxy)pyridazin-3-yl)isoindolin-1-one], the mrna remaining at 1 µM turned out to be 123% and the mrna remaining at 10 µM came to 86%.

Consider `Cn1ncc(-c2cnc3c(c2)C(=O)N(c2ccc(S[C@H]4C[C@]5(C)CC[C@](C)(C4)N5)nn2)C3)n1` [Compound 606, 6-(6-(((1R,3s,5S)-1,5-dimethyl-8-azabicyclo[3.2.1]octan-3-yl)thio)pyridazin-3-yl)-3-(2-methyl-2H-1,2,3-triazol-4-yl)-6,7-dihydro-5H-pyrrolo[3,4-b]pyridin-5-one], for which the mrna remaining at 1 µM turned out to be 57% and the mrna remaining at 10 µM amounted to 25%.

Regarding `CN(c1ncc(N2Cc3cnc(-c4cnn(C)n4)cc3C2=O)nn1)[C@H]1C[C@]2(C)CC[C@](C)(C1)N2` [Compound 73, 2-(3-(((1R,3s,5S)-1,5-dimethyl-8-azabicyclo[3.2.1]octan-3-yl)(methyl)amino)-1,2,4-triazin-6-yl)-6-(2-methyl-2H-1,2,3-triazol-4-yl)-2,3-dihydro-1H-pyrrolo[3,4-c]pyridin-1-one], the mrna remaining at 1 µM came to 85% and the mrna remaining at 10 µM came to 70%.

With `Cn1cc(-c2cc3c(cn2)CN(c2ccc(O[C@H]4C[C@]5(C)CC[C@](C)(C4)N5)nn2)C3=O)cn1` [Compound 99, 2-(6-(((1R,3s,5S)-1,5-dimethyl-8-azabicyclo[3.2.1]octan-3-yl)oxy)pyridazin-3-yl)-6-(1-methyl-1H-pyrazol-4-yl)-2,3-dihydro-1H-pyrrolo[3,4-c]pyridin-1-one], the mrna remaining at 1 µM is 90% and the mrna remaining at 10 µM amounted to 86%.

As to `CN(c1ccc(N2Cc3ncc(-c4cnn(C)n4)cc3C2=O)nn1)C1CC(C)(C)NC(C)(C)C1` [Compound 189, 6-(6-(methyl(2,2,6,6-tetramethylpiperidin-4-yl)amino)pyridazin-3-yl)-3-(2-methyl-2H-1,2,3-triazol-4-yl)-6,7-dihydro-5H-pyrrolo[3,4-b]pyridin-5-one], the mrna remaining at 1 µM stood at 73% and the mrna remaining at 10 µM came out at 23%.

Turning to `Cc1nn(C)nc1-c1cnc2c(c1)C(=O)N(c1ccc(N3CCN[C@@H](C(C)(C)C)C3)nn1)C2` [Compound 600, (S)-6-(6-(3-(tert-butyl)piperazin-1-yl)pyridazin-3-yl)-3-(2,5-dimethyl-2H-1,2,3-triazol-4-yl)-6,7-dihydro-5H-pyrrolo[3,4-b]pyridin-5-one], the mrna remaining at 1 µM is 104% and the mrna remaining at 10 µM was 14%.

On to `Cc1nn(C)cc1-c1cc(F)c2c(c1)C(=O)N(c1ccc(OC3CC(C)(C)NC4(CC4)C3)nn1)C2` (stereo not drawn) [Compound 284, 6-(1,3-dimethyl-1H-pyrazol-4-yl)-2-(6-((5,5-dimethyl-4-azaspiro[2.5]octan-7-yl)oxy)pyridazin-3-yl)-4-fluoroisoindolin-1-one], for which the mrna remaining at 1 µM was 91% and the mrna remaining at 10 µM is 73%.

Turning to `Cn1nc(Cl)c(-c2cnc3c(c2)C(=O)N(c2ccc(N4CCC[C@@H](NC(C)(C)C)C4)nn2)C3)n1` [Compound 617, (R)-6-(6-(3-(tert-butylamino)piperidin-1-yl)pyridazin-3-yl)-3-(5-chloro-2-methyl-2H-1,2,3-triazol-4-yl)-6,7-dihydro-5H-pyrrolo[3,4-b]pyridin-5-one], the mrna remaining at 1 µM is 93% and the mrna remaining at 10 µM was 70%.

On to `CN(c1ccc(N2Cc3c(F)cc(-c4cnn(CC(C)(C)O)c4)cc3C2=O)nn1)[C@H]1C[C@]2(C)CC[C@](C)(C1)N2` [Compound 632, 2-(6-(((1R,3s,5S)-1,5-dimethyl-8-azabicyclo[3.2.1]octan-3-yl)(methyl)amino)pyridazin-3-yl)-4-fluoro-6-(1-(2-hydroxy-2-methylpropyl)-1H-pyrazol-4-yl)isoindolin-1-one], for which the mrna remaining at 1 µM amounted to 72% and the mrna remaining at 10 µM amounted to 57%.

Regarding `COc1cc(-c2nn(C)nc2Cl)cc2c1CN(c1ccc(O[C@H]3C[C@]4(C)CC[C@](C)(C3)N4)nn1)C2=O` [Compound 684, 6-(5-chloro-2-methyl-2H-1,2,3-triazol-4-yl)-2-(6-(((1R,3s,5S)-1,5-dimethyl-8-azabicyclo[3.2.1]octan-3-yl)oxy)pyridazin-3-yl)-4-methoxyisoindolin-1-one], the mrna remaining at 1 µM came to 133% and the mrna remaining at 10 µM is 24%.

Take `Cc1nn(C)cc1-c1cnc2c(c1)C(=O)N(c1ccc(OC3CC(C)(C)NC4(CCC4)C3)nn1)C2` (stereo not drawn) [Compound 597, 3-(1,3-dimethyl-1H-pyrazol-4-yl)-6-(6-((6,6-dimethyl-5-azaspiro[3.5]nonan-8-yl)oxy)pyridazin-3-yl)-6,7-dihydro-5H-pyrrolo[3,4-b]pyridin-5-one]: the mrna remaining at 1 µM stood at 98% and the mrna remaining at 10 µM worked out at 29%.

On to `Cn1cc(-c2cc3c(cn2)CN(c2ccc(OC4CC(C)(C)NC(C)(C)C4)nn2)C3=O)c(F)n1` [Compound 91, 6-(3-fluoro-1-methyl-1H-pyrazol-4-yl)-2-(6-((2,2,6,6-tetramethylpiperidin-4-yl)oxy)pyridazin-3-yl)-2,3-dihydro-1H-pyrrolo[3,4-c]pyridin-1-one], for which the mrna remaining at 1 µM came out at 85% and the mrna remaining at 10 µM turned out to be 74%.

In the case of `CC[C@]12CC[C@](CC)(C[C@@H](Oc3ccc(N4Cc5ncc(-c6cn(C)nc6C)cc5C4=O)nn3)C1)N2` [Compound 239, 6-(6-(((1R,3s,5S)-1,5-diethyl-8-azabicyclo[3.2.1]octan-3-yl)oxy)pyridazin-3-yl)-3-(1,3-dimethyl-1H-pyrazol-4-yl)-6,7-dihydro-5H-pyrrolo[3,4-b]pyridin-5-one], the EC50 worked out at 2040 nM, the mrna remaining at 1 µM was 84% and the mrna remaining at 10 µM was found to be 19%.
